Data reported in patent US4339442A, “Gynosaponins, their use and a process for preparing the same” (priority 1980, dated 1982).

Experiments:
Assay type in all cases: cell-based, male wister rats
[1] = system: fat cells; assay: Decomposition of the fat in the fat cell by ACTH; details: ACTH 1 μg/ml + saponin 20 μg/ml, 37° C., two hours; for inhibition at 20 µg/mL: Rattus norvegicus, 2 h, read-out: Rate of inhibition
Protocol: (§1) Fat tissues were separated from the epididymides of male wister rats weighing 150 to 180 g each, and fat cells were obtained therefrom in accordance with the Rodbell's method [M. Rodbell, J. Biol. Chem., 239, 375 (1964)]. A small section was prepared from 4 g of the fat tissue, and placed in 10 ml. of Krebs-Ringer bicarbonate buffer containing 0.4 g of albumin, 10 mg of collagenase and 5 mg of glucose, and having a pH value of 7.4. It was heated at 37° C. for 50 minutes, and subjected to centrifugal separation at 300 rpm, whereby a floating fat cell layer was separated. Added into the fat cell were 10 ml. of the aforesaid buffer (pH 7.4), and the solution was carefully stirred to wash the fat cell, followed by centrifugal separation at 300 rpm for 30 seconds. This procedure was repeated twice, whereby the fat cells were washed perfectly, and these fat cells were used for the tests.
The fat cells obtained by treating with collagenase were suspended in Krebs-Ringer bicarbonate buffer (KRB) having a pH value of 7.4. Placed into a test tube were 0.3 ml. of the solution thus obtained (containing 100 mg of fat cells), 0.1 ml. of ACTH solution containing 1 μg of ACTH, 0.1 ml. of each saponin solution containing 500 μg of saponin, and 0.3 ml. of a 5% alubumin solution in KRB, and having a pH value adjusted to 7.4. They were heated at 37° C. for two hours, and the amount of the resulting free fatty acid was determined in accordance with the Dole's method [V. P. Dole, J. Biol. Chem., 35, 150 (1958)].
Namely, 3 ml. of Dole's extract were separated into the reaction system, and 1 ml. of a thymol blue solution was added thereinto. Nitrogen was blown into the resulting solution, and the solution was titrated with a 0.008 N aqueous solution of sodium hydroxide, while it was being stirred. The amount of the resulting free fatty acid was determined in accordance with a calibration curve.
The rate of inhibition against fat decomposition was obtained in accordance with the following equation: [formula] wherein A stands for the amount of the free fatty acid formed by addition of ACTH along in the amount of 1 μg/ml.; and B stands for the amount of the free fatty acid formed by addition of ACTH and saponin in the amount of 1 μg/ml. and 20 μg/ml., respectively.

[2] = system: fat cells; assay: Decomposition by adrenalin of the fat in the fat cells; details: adrenalin 1 μg/ml + saponin 20 μg/ml, 37° C., two hours; for inhibition at 20 µg/mL: Rattus norvegicus, 2 h, read-out: Rate of inhibition
Protocol: A small section was prepared from 4 g of the fat tissue, and placed in 10 ml. of Krebs-Ringer bicarbonate buffer containing 0.4 g of albumin, 10 mg of collagenase and 5 mg of glucose, and having a pH value of 7.4. […] Added into the fat cell were 10 ml. of the aforesaid buffer (pH 7.4), and the solution was carefully stirred to wash the fat cell, followed by centrifugal separation at 300 rpm for 30 seconds. This procedure was repeated twice, whereby the fat cells were washed perfectly, and these fat cells were used for the tests.
The fat cells obtained by treating with collagenase were suspended in Krebs-Ringer phosphate buffer (KRP) having a pH value of 7.4. Placed into a test tube were 0.3 ml. of the solution thus obtained, and containing 100 mg of fat cells, 0.1 ml. of an adrenalin solution containing 1 μg of adrenalin, 0.1 ml. of a saponin solution containing 20 μg of saponin, and 0.5 ml. of a 5% albumin solution in KRP, and having a pH value adjusted to 7.4. […] More specifically, 3 ml. of Dole's extract were placed in the reaction system, and after they were shaked for five minutes, 3 ml. of heptane were dispensed, and 1 ml. of a thymol blue solution was added thereinto. The resulting solution was titrated with a 0.008 N aqueous solution of sodium hydroxide, while it was being stirred with nitrogen, and the amount of the resulting free fatty acid was determined in accordance with a calibration curve.
The rate of inhibition was obtained in accordance with the equation shown at (1) above.

[3] = system: fat cells; assay: Synthesis of fat from glucose in fat cells; details: 20 μg/ml; for Power for synthesis of neutral fat from glucose: 37° C., half an hour; for activation at 20 µg/mL: Rattus norvegicus, 0.5 h, read-out: Rate of promotion; for activation at 20 µg/mL / Rate of promotion: none = 100
Protocol: as §1
^14 C-glucose having its carbon atoms marked with radioactivity was reacted upon fat cells, and a Geiger count was read to determine the amount of the glucose participating in the fat synthesis and incorporated into the fat cells as a neutral fat, whereby gynosaponins were tested for their effects on the power of the glucose for fat synthesis.
More specifically, the fat cells obtained by treating with collagenase were suspended in KRB, and 0.35 ml. of the resulting solution containing 100 mg of fat cells was placed into a test tube with 0.1 ml. of each saponin solution containing 20 μg of saponin, 0.5 ml. of a 5% albumin solution in KRB, containing 10 mM glucose and having a pH value of 7.4, and 0.05 ml. of a ^14 C-glucose solution which was a 0.5 μCi KRP solution having a pH value of 7.4 and containing 10 mM glucose. They were heated at 37° C. for half an hour, and after 5 ml. of Dole's extract were added and the whole was shaked for five minutes, 3 ml. of heptane and 2 ml. of water were added, and the whole was shaked for five minutes. 3 ml. of a heptane layer were separated, and after an alkaline ethanol solution (0.5 N sodium hydroxide solution, 50 % ethanol solution) was added in the amount of 3 ml., the whole was shaked for five minutes. Then, 1 ml. of an ethanol layer was separated, and 10 ml. of a toluene scintillation solution were added thereinto, followed by determination according to the method of Skipski et al. [Biochem. Biophys. Acta, 106, 386 (1965)].

Q: What does the source list for CC(C)=CCC[C@](C)(O[C@@H]1O[C@H](CO[C@@H]2O[C@H](CO)[C@@H](O)[C@H](O)[C@H]2O)[C@@H](O)[C@H](O)[C@H]1O)[C@H]1CC[C@]2(C)[C@@H]1[C@H](O)C[C@@H]1[C@@]3(C)CC[C@H](O[C@@H]4O[C@H](CO[C@@H]5O[C@@H](C)[C@H](O)[C@@H](O)[C@H]5O)[C@@H](O)[C@H](O)[C@H]4O)C(C)(C)[C@@H]3CC[C@]12C [progynosapogenin A2, 20S-Protopanaxadiol-3-O-[α-L-rhamnopyranosyl (1→6)-β-D-glucopyranoside]-20-O-[β-D-glucopyranosyl (1→6)-β-D-glucopyranoside]]?
A: Free fatty acid formed by decomposition of fat [1]: 6.2 μ Eq/g; inhibition at 20 µg/mL [1]: 26%; inhibition at 20 µg/mL [2]: 8%; Free fatty acid formed by decomposition of fat [2]: 13.0 μ Eq/g; Power for synthesis of neutral fat from glucose [3]: 12,650 cpm/g; activation at 20 µg/mL [3]: 59%

Q: Which “Free fatty acid formed by decomposition of fat” value (shortened to “Free fatty acid formed”) [1] does the source give for CC(C)=CCC[C@](C)(O[C@@H]1O[C@H](CO[C@@H]2O[C@@H](C)[C@H](O)[C@@H](O)[C@H]2O)[C@@H](O)[C@H](O)[C@H]1O)[C@H]1CC[C@]2(C)[C@@H]1[C@H](O)C[C@@H]1[C@@]3(C)CC[C@H](O[C@@H]4O[C@H](CO)[C@@H](O)[C@H](O)[C@H]4O)C(C)(C)[C@@H]3CC[C@]12C [gynosaponin J, 20S-Protopanaxadiol-3-O-β-D-glucopyranoside-20-O-[α-L-rhamnopyranosyl (1→6)-β-D-glucopyranoside]] here?
A: Its value is 5.3 μ Eq/g.

Q: What about the inhibition at 20 µg/mL [1] of the same compound?
A: The inhibition at 20 µg/mL was 37%.

Q: What about the inhibition at 20 µg/mL [2] of the same compound?
A: The inhibition at 20 µg/mL was 7%.

Q: And the “Free fatty acid formed” value [2]?
A: The value was 13.1 μ Eq/g.

Q: What about the “Power for synthesis of neutral fat from glucose” value (“Power for synthesis” for short) [3] of the same compound?
A: The value was 11,650 cpm/g.

Q: And the activation at 20 µg/mL [3]?
A: The activation at 20 µg/mL was 54%.

Q: How did the “Free fatty acid formed” value [1] turn out when “20S-Protopanaxadiol-3-O-{[β-D-glucopyranosyl (1→2)-α-L-rhamnopyranosyl (1→6)]-β-D-glucopyranoside}-20-O-β-D-glucopyranoside [gynosaponin F]” was run?
A: Its value is 6.3 μ Eq/g.

Q: And the Rate of inhibition [1]?
A: Its Rate of inhibition is 25%.

Q: And the “Free fatty acid formed” value [2]?
A: Its value is 13.4 μ Eq/g.

Q: And the Rate of inhibition [2]?
A: Its Rate of inhibition is 5%.

Q: And the “Power for synthesis” value [3]?
A: The value was 11,620 cpm/g.

Q: What about the Rate of promotion [3] of the same compound?
A: Its Rate of promotion is 54%.

Q: For CC(=CCC[C@](C)(O[C@@H]1O[C@H](CO[C@@H]2OC[C@@H](O)[C@H](O)[C@H]2O)[C@@H](O)[C@H](O)[C@H]1O)[C@H]1CC[C@]2(C)[C@@H]1[C@H](O)C[C@@H]1[C@@]3(C)CC[C@H](O)C(C)(C)[C@@H]3CC[C@]12C)CO [gynosaponin U, 20S,26-Hydroxyprotopanaxadiol-20-O-[β-D-xylopyranosyl (1→6)-β-D-glucopyranoside]], which “Free fatty acid formed” value [1] is on record?
A: The value was 5.6 μ Eq/g.

Q: What about the inhibition at 20 µg/mL [1] of the same compound?
A: The inhibition at 20 µg/mL was 33%.

Q: What about the inhibition at 20 µg/mL [2] of the same compound?
A: The inhibition at 20 µg/mL was 2%.

Q: What about the “Free fatty acid formed” value [2] of the same compound?
A: Its value is 13.8 μ Eq/g.

Q: What about the “Power for synthesis” value [3] of the same compound?
A: The value was 13,100 cpm/g.

Q: What about the activation at 20 µg/mL [3] of the same compound?
A: The activation at 20 µg/mL was 61%.

Q: For CC(C)=CCC[C@](C)(O[C@@H]1O[C@H](CO[C@@H]2OC[C@@H](O)[C@H](O)[C@H]2O)[C@@H](O)[C@H](O)[C@H]1O)[C@H]1CC[C@]2(C)[C@@H]1[C@H](O)C[C@@H]1[C@@]3(C)CC[C@H](O[C@@H]4O[C@H](CO)[C@@H](O)[C@H](O)[C@H]4O)C(C)(C)[C@@H]3CC[C@]12C [gynosaponin I, 20S-Protopanaxadiol-3-O-β-D-glucopyranoside-20-O-[β-D-xylopyranosyl (1→6)-β-D-glucopyranoside]], which “Free fatty acid formed” value [1] is on record?
A: The value was 6.6 μ Eq/g.

Q: What about the inhibition at 20 µg/mL [1] of the same compound?
A: The inhibition at 20 µg/mL was 21%.

Q: And the inhibition at 20 µg/mL [2]?
A: The inhibition at 20 µg/mL was 10%.

Q: And the “Free fatty acid formed” value [2]?
A: Its value is 12.7 μ Eq/g.

Q: What about the “Power for synthesis” value [3] of the same compound?
A: Its value is 10,564 cpm/g.

Q: And the activation at 20 µg/mL [3]?
A: The activation at 20 µg/mL was 49%.

Q: CC(C)=CCC[C@](C)(O[C@@H]1O[C@H](CO[C@@H]2O[C@@H](C)[C@H](O)[C@@H](O)[C@H]2O)[C@@H](O)[C@H](O)[C@H]1O)[C@H]1CC[C@]2(C)[C@@H]1[C@H](O)C[C@@H]1[C@@]3(C)CC[C@H](O[C@@H]4O[C@H](CO)[C@@H](O)[C@H](O)[C@H]4O[C@@H]4O[C@H](CO)[C@@H](O)[C@H](O)[C@H]4O)C(C)(C)[C@@H]3CC[C@]12C [gynosaponin E, 20S-Protopanaxadiol-3-O-[β-D-glucopyranosyl (1→2)-β-D-glucopyranoside]-20-O-[α-L-rhamnopyranosyl (1→6)-β-D-glucopyranoside]] was tested. Which “Free fatty acid formed” value [1] did it give?
A: The value was 5.9 μ Eq/g.

Q: What about the inhibition at 20 µg/mL [1] of the same compound?
A: The inhibition at 20 µg/mL was 30%.

Q: And the inhibition at 20 µg/mL [2]?
A: Its inhibition at 20 µg/mL is 33%.

Q: And the “Free fatty acid formed” value [2]?
A: The value was 9.4 μ Eq/g.

Q: What about the “Power for synthesis” value [3] of the same compound?
A: The value was 10,248 cpm/g.

Q: And the activation at 20 µg/mL [3]?
A: The activation at 20 µg/mL was 48%.

Q: What does the source list for CC(C)=CCC[C@](C)(O[C@@H]1O[C@H](CO[C@@H]2O[C@@H](C)[C@H](O)[C@@H](O)[C@H]2O)[C@@H](O)[C@H](O)[C@H]1O)[C@H]1CC[C@]2(C)[C@@H]1[C@H](O)C[C@@H]1[C@@]3(C)CC[C@H](O[C@@H]4O[C@H](CO)[C@@H](O)[C@H](O)[C@H]4O[C@@H]4OC[C@@H](O)[C@H](O)[C@H]4O)C(C)(C)[C@@H]3CC[C@]12C [gynosaponin R, 20S-Protopanaxadiol-3-O-[β-D-xylopyranosyl (1→2)-β-D-glucopyranoside]-20-O-[α-L-rhamnopyranosyl (1→6)-β-D-glucopyranoside]]?
A: Free fatty acid formed by decomposition of fat [1]: 6.2 μ Eq/g; inhibition at 20 µg/mL [1]: 26%; inhibition at 20 µg/mL [2]: 1%; Free fatty acid formed by decomposition of fat [2]: 14.0 μ Eq/g; Power for synthesis of neutral fat from glucose [3]: 12,600 cpm/g; activation at 20 µg/mL [3]: 59%

Q: With “20S,26-Hydroxyprotopanaxadiol-3-O-{[β-D-glucopyranosyl (1→2)-α-L-rhamnopyranosyl (1→6)]-β-D-glucopyranoside}-20-O-[α-L-rhamnopyranosyl (1→6)-β-D-glucopyranoside] [gynosaponin O]” as the compound, how does the “Free fatty acid formed” value [1] read?
A: Its value is 5.6 μ Eq/g.

Q: What about the Rate of inhibition [1] of the same compound?
A: Its Rate of inhibition is 33%.

Q: What about the “Free fatty acid formed” value [2] of the same compound?
A: The value was 13.9 μ Eq/g.

Q: And the Rate of inhibition [2]?
A: Its Rate of inhibition is 1%.

Q: And the “Power for synthesis” value [3]?
A: Its value is 8,263 cpm/g.

Q: What about the Rate of promotion [3] of the same compound?
A: The Rate of promotion was 38%.

Q: With “20S-Protopanaxadiol-3-O-{[β-D-glucopyranosyl (1→2)-α-L-rhamnopyranosyl (1→6)]-β-D-glucopyranoside}-20-O-[β-D-glucopyranosyl (1→6)-β-D-glucopyranoside] [gynosaponin A]” as the compound, how does the “Free fatty acid formed” value [1] read?
A: Its value is 6.1 μ Eq/g.

Q: What about the Rate of inhibition [1] of the same compound?
A: The Rate of inhibition was 27%.

Q: And the “Free fatty acid formed” value [2]?
A: The value was 13.4 μ Eq/g.

Q: What about the Rate of inhibition [2] of the same compound?
A: The Rate of inhibition was 5%.

Q: And the “Power for synthesis” value [3]?
A: The value was 8,013 cpm/g.

Q: And the Rate of promotion [3]?
A: The Rate of promotion was 37%.
